From ChEMBL document CHEMBL5260850, “The exploration of aza-quinolines as hematopoietic prostaglandin D synthase (H-PGDS) inhibitors with low brain exposure” (Bioorg Med Chem, 2020)
pEC50, pIC50, pKd: −log10 of the molar value. In brackets after ≈: the same amount, converted by molar mass. Activity calls are given as the source filed them. The calls are words filed in the database; no cut-off is given here.

What was measured:
[1] = target: 5-hydroxytryptamine receptor 1B (Homo sapiens) (UniProt P28222); details: dose <= 10000.0 nM
Description: Inhibition of 5-HT1B receptor (unknown origin) upto 10000 nM

[2] = Clearance in rat at 0.4 mg/kg, iv; format: ADME, organism-based; details: in vivo
[3] = Toxicity in dog assessed as body weight loss at 75 mg/kg/day, po QD for 4 days; format: organism-based, Canis lupus familiaris; details: in vivo, 96 h, time 4 day
[4] = Toxicity in Wistar Han rat assessed as morphological changes in adrenal gland at 30 mg/kg/day, po administered QD for 7 days by microscopic analysis; format: organism-based; details: in vivo, 168 h, time 7 day
[5] = Toxicity in Wistar Han rat assessed as morphological changes in kidney at 30 mg/kg/day, po administered QD for 7 days by microscopic analysis; format: organism-based; details: in vivo, 168 h, time 7 day
[6] = Cmax in Wistar Han rat at 100 mg/kg/day, po QD for 7 days; format: ADME, organism-based; design: dose 100 mg/kg/day, time 7 day, route po; details: in vivo
[7] = Toxicity in dog assessed as clinical pathological changes by measuring increase in hepatobiliary parameters at 75 mg/kg/day, po QD for 4 days; format: organism-based, Canis lupus familiaris; details: in vivo, 96 h, time 4 day
[8] = target: Nuclear receptor subfamily 1 group I member 2 (Homo sapiens, UniProt O75469); test: Inhibition of PXR (unknown origin) upto 10000 nM; details: 10 µM
[9] = target: Mas-related G-protein coupled receptor member X2 (Homo sapiens) (UniProt Q96LB1); details: dose <= 10000.0 nM
Description: Inhibition of MRGPRX2 receptor (unknown origin) upto 10000 nM

[10] = Toxicity in dog assessed as clinical pathological changes by measuring increase in cardiac troponin 1 level at 75 mg/kg/day, po QD for 4 days; format: organism-based, Canis lupus familiaris; details: in vivo, 96 h, time 4 day
[11] = target: T1, Hematopoietic prostaglandin D synthase (Homo sapiens, UniProt O60760); test: Inhibition of human H-PGDS expressed in Escherichia coli BL21 DE3 cells assessed as reduction in PGD2 production using PGH2 as substrate by RapidFire High Throughput Mass spectrometry
Cytochrome P450 3A4 = Cytochrome P450 3A4 (Homo sapiens, UniProt P08684); test: Inhibition of CYP3A4 (unknown origin); format: ADME
[12] = target: T1, Hematopoietic prostaglandin D synthase; test: Binding affinity to human H-PGDS expressed in Escherichia coli BL21 DE3 cells assessed as equilibrium dissociation constant by measuring changes in intrinsic tryptophan fluorescence in presence of glutathione by fluorescence based analysis
[13] = Solubility of the compound in FaSSIF at pH 6.5 measured after 4 hrs by HPLC-UV analysis; format: ADME
[14] = target: T2, Hematopoietic prostaglandin D synthase (Rattus norvegicus, UniProt O35543); test: Inhibition of H-PGDS in rat RBL cells assessed as reduction in A23187-induced PGD2 production pretreated for 30 mins followed by A23187 addition for 30 mins by RapidFire Mass spectrometry; format: cell-based
T2 sequence (O35543 whole entry): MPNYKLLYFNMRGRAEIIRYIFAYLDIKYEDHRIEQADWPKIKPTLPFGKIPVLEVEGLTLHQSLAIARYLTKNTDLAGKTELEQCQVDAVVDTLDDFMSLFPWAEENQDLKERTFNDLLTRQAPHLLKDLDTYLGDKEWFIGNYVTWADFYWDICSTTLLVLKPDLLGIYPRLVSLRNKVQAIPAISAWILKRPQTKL

[15] = target: Voltage-dependent L-type calcium channel subunit alpha-1C (Homo sapiens, UniProt Q13936); test: Inhibition of Cav1.2 channel (unknown origin) upto 10000 nM; details: 10 µM
[16] = Toxicity in compound 48/80-treated C57BL/6J mouse assessed as seizures administered orally with compound and 1 hr later treated with compound 48/80 for 7 mins; details: in vivo, po, 1.117 h, time 67 min
[17] = target: Kappa-type opioid receptor (Homo sapiens) (UniProt P41145); details: dose <= 10000.0 nM
Description: Inhibition of kappa opioid receptor (unknown origin) upto 10000 nM

Mus musculus [18] = species on record: Mus musculus; test: animal or person; details: C57BL/6J, Mast cell, po, 1.117 h
[19] = AUC in Wistar Han rat at 100 mg/kg/day, po QD for 7 days; format: ADME, organism-based; design: time 7 day, dose 100 mg/kg/day, route po; details: in vivo
[20] = Toxicity in Wistar Han rat assessed as increased lymphocytolysis in thymus at 100 mg/kg/day, po administered QD for 7 days by microscopic analysis; format: organism-based; details: in vivo, 168 h, time 7 day
[21] = target: cGMP-inhibited 3',5'-cyclic phosphodiesterase 3A (Homo sapiens) (UniProt Q14432); details: dose <= 10000.0 nM
Description: Inhibition of PDE3A (unknown origin) upto 10000 nM

Mus musculus [22] = test: Anti-inflammatory activity against C57BL6/N mouse assessed as EC50 required for reduction in LPS-induced PGD2 level in plasma administered orally with compound and 1 hr later treated with LPS and measured after 30 mins by LC-MS/MS analysis; format: functional, organism-based; details: C57BL/6N
[23] = target: 5-hydroxytryptamine receptor 2B (Homo sapiens) (UniProt P41595); details: dose <= 10000.0 nM
Description: Inhibition of 5-HT2B receptor (unknown origin) upto 10000 nM

[24] = AUC in dog at 10 mg/kg/day, po QD for 4 days; format: ADME, organism-based, Canis lupus familiaris; design: dose 10 mg/kg/day, time 4 day, route po; details: in vivo
[25] = target: Mu-type opioid receptor (Homo sapiens) (UniProt P35372); details: dose <= 10000.0 nM
Description: Inhibition of mu opioid receptor (unknown origin) upto 10000 nM

[26] = Genotoxicity in Salmonella typhimurium in absence of metabolic activation by Ames test; format: toxicity; details: salmonella enterica subsp. enterica serovar typhimurium
[27] = AUC in dog at 75 mg/kg/day, po QD for 4 days; format: ADME, organism-based, Canis lupus familiaris; design: time 4 day, dose 75 mg/kg/day, route po; details: in vivo
[28] = Toxicity in rat assessed as tolerance at 300 mg/kg, po administered as single dose; format: organism-based; details: in vivo
[29] = Cmax in eccentric contraction-induced muscle injury C57BL/6N mouse model administered orally for 10 mins prior to unilateral eccentric contraction and QD for 16 days thereafter; format: ADME; design: time 16 day, route po; details: in vivo, po
Mus musculus [30] = test: Anti-inflammatory activity against C57BL6/N mouse assessed as reduction in LPS-induced PGD2 level in plasma administered orally with compound and 1 hr later treated with LPS and measured after 30 mins by LC-MS/MS analysis; format: functional; details: route po, time 1.5 hrs
[31] = target: Prostaglandin-H2 D-isomerase (Homo sapiens, UniProt P41222); test: Inhibition of L-PGDS (unknown origin)
Albumin = Albumin (Homo sapiens, UniProt P02768); test: Protein binding in human serum albumin by HPLC analysis; format: ADME, cell-free; details: read-out: PB (converted)
[32] = Toxicity in dog assessed as clinical pathological changes by measuring increase in red cell mass at 75 mg/kg/day, po QD for 4 days; format: organism-based, Canis lupus familiaris; details: in vivo, 96 h, time 4 day
[33] = Cmax in mdx mouse administered orally 10 mins prior to unilateral eccentric contraction and QD for 43 days thereafter; format: ADME; design: time 43 day, route po; details: in vivo, po
[34] = Toxicity in dog assessed as organ morphological changes upto 30 mg/kg/day, po QD for 4 days by microscopic analysis; format: organism-based, Canis lupus familiaris; details: in vivo, 96 h, time 4 day
[35] = Ratio of drug level in muscle to plasma in C57BL/6N mouse administered orally for 10 mins prior to unilateral eccentric contraction and QD for 16 days thereafter; format: toxicity, cell-free, Muscle tissue/plasma; details: route po, time 16 day
[36] = Dose normalized AUC in mouse at 3 mg/kg, po; format: ADME, organism-based; design: unit not given here; details: in vivo
[37] = Toxicity in LPS-treated C57BL6/N mouse assessed as seizures administered orally with compound and 1 hr later treated with LPS and measured after 30 mins; details: in vivo, po, 1.5 h
[38] = Toxicity in dog assessed as cytoplasmic alteration in zona fasciculata in adrenal gland at 75 mg/kg/day, po QD for 4 days by microscopic analysis; format: organism-based, Canis lupus familiaris; details: in vivo, 96 h, time 4 day

T1 sequence (O60760 whole entry): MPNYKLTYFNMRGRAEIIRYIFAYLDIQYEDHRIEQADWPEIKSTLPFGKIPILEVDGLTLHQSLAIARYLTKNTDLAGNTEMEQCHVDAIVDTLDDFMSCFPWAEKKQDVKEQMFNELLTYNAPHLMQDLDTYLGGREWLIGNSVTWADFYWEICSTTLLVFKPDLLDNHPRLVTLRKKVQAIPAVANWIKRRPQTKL
Nuclear receptor subfamily 1 group I member 2, sequence (O75469 whole entry): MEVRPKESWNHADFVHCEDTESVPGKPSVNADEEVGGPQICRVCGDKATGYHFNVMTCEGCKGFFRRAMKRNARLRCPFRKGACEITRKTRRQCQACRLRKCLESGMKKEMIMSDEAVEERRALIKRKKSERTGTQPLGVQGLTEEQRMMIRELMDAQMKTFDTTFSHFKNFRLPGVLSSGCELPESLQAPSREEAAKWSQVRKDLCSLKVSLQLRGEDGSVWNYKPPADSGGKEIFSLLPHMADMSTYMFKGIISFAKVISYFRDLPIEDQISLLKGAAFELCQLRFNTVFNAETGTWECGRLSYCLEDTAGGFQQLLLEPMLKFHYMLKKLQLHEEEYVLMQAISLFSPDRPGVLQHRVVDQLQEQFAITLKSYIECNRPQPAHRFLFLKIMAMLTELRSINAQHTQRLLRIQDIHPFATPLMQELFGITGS
Mas-related G-protein coupled receptor member X2 (Homo sapiens), sequence (Q96LB1 whole entry): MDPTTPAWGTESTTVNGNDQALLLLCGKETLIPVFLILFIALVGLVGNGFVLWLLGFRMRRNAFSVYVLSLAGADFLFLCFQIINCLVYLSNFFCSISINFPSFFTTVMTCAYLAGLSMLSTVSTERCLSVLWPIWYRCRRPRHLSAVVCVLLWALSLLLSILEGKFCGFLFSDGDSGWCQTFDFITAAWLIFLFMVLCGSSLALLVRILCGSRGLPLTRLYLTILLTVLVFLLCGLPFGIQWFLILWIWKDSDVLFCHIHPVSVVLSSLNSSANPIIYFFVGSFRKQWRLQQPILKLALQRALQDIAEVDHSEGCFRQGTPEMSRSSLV
5-hydroxytryptamine receptor 1B (Homo sapiens), sequence (P28222 whole entry): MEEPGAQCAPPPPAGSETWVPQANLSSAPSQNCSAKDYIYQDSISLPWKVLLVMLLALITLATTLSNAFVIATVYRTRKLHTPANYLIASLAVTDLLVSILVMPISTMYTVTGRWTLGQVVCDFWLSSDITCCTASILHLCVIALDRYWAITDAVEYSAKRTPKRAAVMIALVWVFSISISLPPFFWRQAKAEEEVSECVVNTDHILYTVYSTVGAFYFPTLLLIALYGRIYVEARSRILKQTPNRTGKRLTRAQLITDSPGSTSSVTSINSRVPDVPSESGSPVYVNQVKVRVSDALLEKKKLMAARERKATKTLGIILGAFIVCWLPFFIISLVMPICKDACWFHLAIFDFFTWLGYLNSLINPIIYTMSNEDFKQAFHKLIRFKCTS
Voltage-dependent L-type calcium channel subunit alpha-1C, sequence (Q13936 whole entry): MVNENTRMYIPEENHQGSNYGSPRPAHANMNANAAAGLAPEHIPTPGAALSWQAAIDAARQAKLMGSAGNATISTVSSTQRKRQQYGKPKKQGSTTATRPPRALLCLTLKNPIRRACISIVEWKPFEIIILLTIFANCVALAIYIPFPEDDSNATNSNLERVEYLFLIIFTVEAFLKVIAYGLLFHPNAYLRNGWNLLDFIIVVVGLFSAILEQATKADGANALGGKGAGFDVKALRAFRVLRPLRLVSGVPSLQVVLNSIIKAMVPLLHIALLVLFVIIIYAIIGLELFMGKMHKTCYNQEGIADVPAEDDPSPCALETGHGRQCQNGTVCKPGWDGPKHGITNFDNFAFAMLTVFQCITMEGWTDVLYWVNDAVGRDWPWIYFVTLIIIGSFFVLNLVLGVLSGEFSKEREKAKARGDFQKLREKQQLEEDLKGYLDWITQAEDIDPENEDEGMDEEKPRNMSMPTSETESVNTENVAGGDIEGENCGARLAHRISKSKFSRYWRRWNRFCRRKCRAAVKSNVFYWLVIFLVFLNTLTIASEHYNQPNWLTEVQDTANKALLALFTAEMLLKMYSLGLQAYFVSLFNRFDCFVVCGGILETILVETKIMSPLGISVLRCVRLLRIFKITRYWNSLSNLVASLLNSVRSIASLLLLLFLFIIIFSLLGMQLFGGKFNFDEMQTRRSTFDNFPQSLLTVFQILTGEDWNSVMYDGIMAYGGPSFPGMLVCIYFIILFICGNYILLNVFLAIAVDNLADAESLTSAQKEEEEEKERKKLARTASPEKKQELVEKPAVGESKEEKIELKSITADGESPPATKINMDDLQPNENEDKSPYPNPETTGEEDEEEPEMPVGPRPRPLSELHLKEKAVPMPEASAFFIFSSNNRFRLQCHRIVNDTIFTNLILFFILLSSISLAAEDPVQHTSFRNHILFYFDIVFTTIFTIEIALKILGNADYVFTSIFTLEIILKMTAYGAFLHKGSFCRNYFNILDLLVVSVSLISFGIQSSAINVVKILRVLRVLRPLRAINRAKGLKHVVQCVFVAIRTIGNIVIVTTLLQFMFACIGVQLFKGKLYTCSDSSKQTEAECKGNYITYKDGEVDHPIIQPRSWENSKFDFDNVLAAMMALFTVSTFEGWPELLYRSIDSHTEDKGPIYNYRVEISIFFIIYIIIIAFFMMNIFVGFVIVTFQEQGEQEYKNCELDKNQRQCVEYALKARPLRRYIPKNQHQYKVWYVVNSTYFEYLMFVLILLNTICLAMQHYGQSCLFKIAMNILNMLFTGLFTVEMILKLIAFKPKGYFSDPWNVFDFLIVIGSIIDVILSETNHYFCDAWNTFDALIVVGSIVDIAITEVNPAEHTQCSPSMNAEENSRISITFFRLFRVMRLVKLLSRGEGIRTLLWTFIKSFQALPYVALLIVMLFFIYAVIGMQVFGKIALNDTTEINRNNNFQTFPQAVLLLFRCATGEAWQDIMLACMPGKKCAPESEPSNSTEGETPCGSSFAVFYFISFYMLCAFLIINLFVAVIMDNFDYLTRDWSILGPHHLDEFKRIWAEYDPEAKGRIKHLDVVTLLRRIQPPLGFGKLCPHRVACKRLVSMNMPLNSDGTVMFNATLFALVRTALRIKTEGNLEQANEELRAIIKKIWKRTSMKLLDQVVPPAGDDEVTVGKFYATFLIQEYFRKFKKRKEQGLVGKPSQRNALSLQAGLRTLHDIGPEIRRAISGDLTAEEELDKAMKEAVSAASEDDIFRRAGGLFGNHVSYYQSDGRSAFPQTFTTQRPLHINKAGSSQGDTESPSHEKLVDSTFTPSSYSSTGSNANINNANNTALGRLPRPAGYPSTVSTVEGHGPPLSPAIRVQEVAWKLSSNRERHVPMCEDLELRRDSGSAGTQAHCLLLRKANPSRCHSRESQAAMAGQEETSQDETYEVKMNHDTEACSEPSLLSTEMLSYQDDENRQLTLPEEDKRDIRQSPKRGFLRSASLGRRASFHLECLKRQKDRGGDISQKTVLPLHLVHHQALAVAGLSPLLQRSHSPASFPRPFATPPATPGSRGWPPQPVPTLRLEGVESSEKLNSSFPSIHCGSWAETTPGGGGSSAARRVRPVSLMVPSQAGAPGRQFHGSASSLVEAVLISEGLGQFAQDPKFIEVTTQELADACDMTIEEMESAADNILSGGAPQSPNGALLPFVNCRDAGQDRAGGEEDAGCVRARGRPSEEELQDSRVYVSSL
5-hydroxytryptamine receptor 2B (Homo sapiens), sequence (P41595 whole entry): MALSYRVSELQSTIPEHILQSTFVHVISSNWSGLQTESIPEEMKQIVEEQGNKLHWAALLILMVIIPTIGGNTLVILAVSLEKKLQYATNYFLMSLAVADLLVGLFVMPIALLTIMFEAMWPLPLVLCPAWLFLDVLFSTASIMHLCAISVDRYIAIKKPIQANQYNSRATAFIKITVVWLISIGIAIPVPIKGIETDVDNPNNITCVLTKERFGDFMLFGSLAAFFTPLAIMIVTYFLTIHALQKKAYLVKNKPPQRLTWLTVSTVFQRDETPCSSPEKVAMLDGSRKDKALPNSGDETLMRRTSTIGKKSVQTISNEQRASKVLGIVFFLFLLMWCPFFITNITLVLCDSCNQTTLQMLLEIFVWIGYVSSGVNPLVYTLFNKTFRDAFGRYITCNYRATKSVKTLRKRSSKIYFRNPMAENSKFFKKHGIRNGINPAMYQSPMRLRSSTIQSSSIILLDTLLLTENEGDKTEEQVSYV
Prostaglandin-H2 D-isomerase, sequence (P41222 whole entry): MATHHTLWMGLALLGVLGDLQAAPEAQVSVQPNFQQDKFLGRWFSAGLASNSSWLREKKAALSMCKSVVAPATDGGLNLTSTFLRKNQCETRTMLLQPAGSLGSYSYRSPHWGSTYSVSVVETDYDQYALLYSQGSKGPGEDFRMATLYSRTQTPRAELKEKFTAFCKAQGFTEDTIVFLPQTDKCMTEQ
Albumin, sequence (P02768 whole entry): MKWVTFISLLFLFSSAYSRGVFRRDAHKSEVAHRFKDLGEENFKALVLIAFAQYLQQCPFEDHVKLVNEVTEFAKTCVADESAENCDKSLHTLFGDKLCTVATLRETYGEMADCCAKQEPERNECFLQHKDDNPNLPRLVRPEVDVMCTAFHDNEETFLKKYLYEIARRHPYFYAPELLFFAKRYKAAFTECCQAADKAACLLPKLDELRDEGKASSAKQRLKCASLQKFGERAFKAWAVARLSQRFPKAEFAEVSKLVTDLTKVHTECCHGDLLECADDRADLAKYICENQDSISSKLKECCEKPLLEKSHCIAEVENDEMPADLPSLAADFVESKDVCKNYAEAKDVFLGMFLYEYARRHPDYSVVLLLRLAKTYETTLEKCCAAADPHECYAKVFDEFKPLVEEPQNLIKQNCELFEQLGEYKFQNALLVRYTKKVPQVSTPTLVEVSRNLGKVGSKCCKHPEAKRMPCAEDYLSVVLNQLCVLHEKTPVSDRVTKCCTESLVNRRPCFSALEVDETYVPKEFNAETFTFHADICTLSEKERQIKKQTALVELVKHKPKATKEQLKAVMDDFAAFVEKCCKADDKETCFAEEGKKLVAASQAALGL

In the case of `CC(C)(O)[C@H]1CC[C@H](NC(=O)c2cnc3nc(C4CC4)ccc3c2)CC1`, the inhibition [1] was “inactive”, the clearance [2] was 4.5 mL/min/kg and the Activity [3] was “Toxic”. The Activity [4] was “Non-Toxic”, the Activity [5] was “Non-Toxic” and the Cmax [6] was 57 µg/mL. For the same compound, the Activity [7] was “Toxic”, the “inhibition (INH)” value [8] was “Not Active” and the inhibition [9] was “inactive”. The Activity [10] was “Toxic”, the pIC50 [11] was 8.03 and the pIC50 (Cytochrome P450 3A4) was under 4.00. It also gave a pKd [12] of 9.62, a solubility at 4 h [13] of 140 µg/mL (≈ 396 µM) and a pEC50 [14] of 7.38. The “inhibition (INH)” value [15] was “Not Active”, the Activity [16] was “Non-Toxic” and the inhibition [17] was “inactive”. The ED50 (Mus musculus [18]) was 9 µg/kg, the AUC at 168 h [19] was 820 µg·h/mL and the Activity [20] was “Toxic”. The inhibition [21] was “inactive”, the pEC50 (Mus musculus [22]) was 8.59 and the inhibition [23] was “inactive”. The AUC at 96 h [24] was 120 µg·h/mL, the inhibition [25] was “inactive” and the Activity [26] was “Non-Toxic”. For the same compound, the AUC at 96 h [27] was 3600 µg·h/mL, the Activity [28] was “Non-Toxic” and the Cmax [29] was 1700 ng/mL. For the same compound, the ED50 (Mus musculus [30]) was 3.1 µg/kg, the pIC50 [31] was under 5.00 and the fraction unbound (Albumin) was 0.2. The Activity [32] was “Toxic”, the Cmax [33] was 260 ng/mL and the Activity [34] was “Non-Toxic”. The Kp at 384 h [35] was 0.56, the AUC/dose [36] was 1320 and the Activity [37] was “Non-Toxic”. The Activity [38] was “Toxic”.
